Results on two compounds are retold here after patent US11065266B2, “Method of treating melanoma using an inhibitor of an atypical protein kinase C” (UNIVERSITY OF SOUTH FLORIDA, priority 2016, dated 2021).

Assay [1] concerns malignant melanoma cell lines (SK-MEL-2 and MeWo). The experiment in a line: Western blot of ζ-Stat treated samples. The class given is cell-based, human. The procedure: The change of levels of phosphorylated PKC-ι, total PKC-ι (FIG. 18A) and change of levels of phosphorylated PKC-ζ, total PKC-ζ (FIG. 18B) are shown for the ζ-Stat treated (2.5 μM) samples of malignant melanoma cell lines (SK-MEL-2 and MeWo) after the end of 3rd day of treatments. β-actin was used as the internal loading control in each Western blot. Whole cell lysate of 40 μg was separated on 7.5% SDS-PAGE and the Western blots of above proteins were obtained. N=3 experiments were performed in each case.
In general terms: Immunoblotting shows a protein as a band on a membrane.

In the next assay the target is T1, PKC-ι (Homo sapiens, UniProt P41743).
T1 sequence (P41743 1-596): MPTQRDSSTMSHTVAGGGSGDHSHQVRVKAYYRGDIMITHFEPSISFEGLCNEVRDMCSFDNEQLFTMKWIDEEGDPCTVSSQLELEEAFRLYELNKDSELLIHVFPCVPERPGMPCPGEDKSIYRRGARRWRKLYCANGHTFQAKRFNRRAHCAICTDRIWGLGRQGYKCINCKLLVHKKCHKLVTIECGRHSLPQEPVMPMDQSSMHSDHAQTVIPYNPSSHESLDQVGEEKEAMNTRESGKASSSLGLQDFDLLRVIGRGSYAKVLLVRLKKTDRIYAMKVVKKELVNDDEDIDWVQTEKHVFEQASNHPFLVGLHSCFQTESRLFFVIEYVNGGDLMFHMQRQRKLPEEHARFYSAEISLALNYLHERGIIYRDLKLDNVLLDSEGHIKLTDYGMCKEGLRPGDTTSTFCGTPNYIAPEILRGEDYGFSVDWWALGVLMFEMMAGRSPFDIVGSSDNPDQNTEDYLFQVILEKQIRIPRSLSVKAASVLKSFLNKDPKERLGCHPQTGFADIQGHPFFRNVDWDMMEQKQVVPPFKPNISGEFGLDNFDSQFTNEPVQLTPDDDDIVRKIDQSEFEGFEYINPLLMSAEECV
The arrangement: dose or concentration left out as unconfirmed. To be noted: cited from earlier work.

A further assay has as its system SK-MEL-2 cells. The experiment in a line: Growth inhibition assay (cell counts over 72 h). The class given is cell-based, human. To be noted: for inhibition at 0.05 µM / inhibition at 0.1 µM / inhibition at 0.2 µM / inhibition at 0.5 µM / inhibition at 1 µM: Homo sapiens; for inhibition at 0.05 µM: 50 nM; for inhibition at 0.1 µM: 100 nM; for inhibition at 0.2 µM: 200 nM; for inhibition at 0.5 µM: 500 nM. The procedure:
For the growth inhibition assays, the PCS-200-013 cells or SK-MEL-2 cells were seeded at 40,000 cells/well into 6-well-plates and treated with the respective inhibitor. Cells in each well were counted after 24 h from the time of treating with the inhibitor at the desired concentration. Each inhibitor had triplicate plates which were counted at 24th, 48th and 72nd hours after initiating the inhibitor treatment. Inhibitors were added after 24 h of seeding point. The inhibitor concentrations were none (control), 50 nM, 100 nM, 200 nM, 500 nM and 1 μM. The cells were counted using a hemocytometer. The same procedure was followed for inhibitors ICA-1, ACPD, 3,4-diamino-2,7-naphthalenedisulfonic acid DNDA and 8-hydroxy-1, 3,6-naphthalenetrisulfonic acid (ζ-Stat).
Cell growth of malignant melanoma cells was reduced by applying PKC-ι and PKC-ζ inhibitors (FIGS. 3A-3D and 4A-4B). Both PKC-ι, and PKC-ζ heavily contributed to the migration of metastasized melanoma cells and migration can be suppressed using ICA-1 and ACPD. For example, Tables 1-2 provide a summary of the percentage inhibition of growth of SK-MEL-2 cells (Table 1 for ICA-1 and Table 2 for ACPD) as a function of time over 72 h period. Both ACPD and ICA-1 have 40% effectiveness on cell proliferation inhibition at the highest concentration used. Inhibition is increased upon increasing the concentration.

The target in a further assay is T2, PKC-ζ (Homo sapiens, UniProt Q05513).
T2 sequence (Q05513 1-592): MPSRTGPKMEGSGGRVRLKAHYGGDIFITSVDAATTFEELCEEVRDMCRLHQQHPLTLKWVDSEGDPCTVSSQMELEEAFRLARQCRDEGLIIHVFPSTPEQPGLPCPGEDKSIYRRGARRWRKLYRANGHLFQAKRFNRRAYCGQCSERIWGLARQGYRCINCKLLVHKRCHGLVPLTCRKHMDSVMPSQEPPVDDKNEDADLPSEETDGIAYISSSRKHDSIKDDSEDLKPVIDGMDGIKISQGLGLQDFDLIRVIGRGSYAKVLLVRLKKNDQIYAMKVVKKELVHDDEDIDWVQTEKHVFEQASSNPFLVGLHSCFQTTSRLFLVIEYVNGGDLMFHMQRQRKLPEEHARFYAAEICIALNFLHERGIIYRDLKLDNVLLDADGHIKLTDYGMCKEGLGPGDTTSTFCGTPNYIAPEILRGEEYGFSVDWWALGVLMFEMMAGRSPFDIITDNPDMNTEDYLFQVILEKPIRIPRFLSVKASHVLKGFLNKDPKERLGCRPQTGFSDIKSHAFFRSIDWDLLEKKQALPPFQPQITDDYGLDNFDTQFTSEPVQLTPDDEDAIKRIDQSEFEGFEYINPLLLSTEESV
Particulars: at 10 μM; cited from earlier work.

Turning to `O=S(=O)(O)c1cc(O)c2c(S(=O)(=O)O)cc(S(=O)(=O)O)cc2c1` [ζ-Stat, 8-hydroxy-1,3,6-naphthalenetrisulfonic acid], in assay [1], the “apoptosis of malignant melanoma cells” value is on record as “induces the apoptosis”. In assay [1] (2.5 μM, end of 3rd day), the “phosphorylated PKC-ι level” value was “did not change significantly”, the “reduction of pPKC-ζ level” value was determined as 37%, the “reduction of total PKC-ζ level” value is reported as 42% and the “total PKC-ι protein level” value was “did not change significantly”.
On to `CC(=O)C1=C(O)CCC1=O` [ACPD, 2-acetyl-1,3-cyclopentanedione], for which the “inhibition of PKC-ι” value on PKC-ι was “approximately 40%”. For the same compound, in the assay with SK-MEL-2 cells (SK-MEL-2, 24 h, Day 1), the inhibition at 0.05 µM came out at 1%, the inhibition at 0.1 µM stood at 11%, the inhibition at 0.2 µM is 19% and at 0.5 µM the inhibition was 26%. This compound returned an inhibition at 1 µM with SK-MEL-2 cells (SK-MEL-2, 24 h, Day 1) of 36%. In the assay with SK-MEL-2 cells (SK-MEL-2, 48 h, Day 2), this compound registered an inhibition at 0.05 µM of 4%, an inhibition at 0.1 µM of 10%, an inhibition at 0.2 µM of 23% and an inhibition at 0.5 µM of 30%. In addition, in the assay on SK-MEL-2 cells (SK-MEL-2, 48 h, Day 2), the inhibition at 1 µM was determined as 35%. Also, in the assay on SK-MEL-2 cells (SK-MEL-2, 72 h, Day 3), at 0.05 µM the inhibition was 5%, the inhibition at 0.1 µM was determined as 9%, 0.2 µM produced 20% inhibition and the inhibition at 0.5 µM was found to be 26%. The inhibition at 1 µM in the assay on SK-MEL-2 cells (SK-MEL-2, 72 h, Day 3) came out at 37%. Also, in the assay on SK-MEL-2 cells (at the highest concentration used), the “effectiveness on cell proliferation inhibition” value is 40%. Moreover, the “inhibition of PKC-ζ” value at PKC-ζ is given as “about 60%”.

Usually inhibition stands for the share of the control response that was lost under treatment.
